# Biological target: Human neutrophil elastase (Homo sapiens (Human), UniProt P08246)
# Test: Human Neutrophil Elastase Assay
# Type: biochemical
# Settings: human neutrophil elastase, substrate MeOSuc-Ala-Ala-Pro-Val-AMC 250 μM, pH 7.5; read-out: IC50
# Human neutrophil elastase, sequence (P08246 30-247): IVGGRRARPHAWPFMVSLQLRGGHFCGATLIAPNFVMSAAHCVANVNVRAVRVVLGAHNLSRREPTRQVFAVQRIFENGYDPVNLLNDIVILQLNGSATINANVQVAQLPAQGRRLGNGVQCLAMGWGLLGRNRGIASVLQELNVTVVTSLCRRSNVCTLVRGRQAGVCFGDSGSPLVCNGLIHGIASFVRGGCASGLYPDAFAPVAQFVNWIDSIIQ
row,SMILES,IC50 [nM]
1,CS(=O)(=O)c1cc(C#N)ccc1[C@@H]1C2=C(CCC2=O)N(c2cccc(C(F)(F)F)c2)C(=O)N1C(=O)N[C@H]1CCCC[C@@H]1O [Example 47.21],< 1
2,"N#Cc1ccc(C2C3=C(CCC3=O)N(c3cccc(C(F)(F)F)c3)C(=O)N2CC(=O)N2CCSCC2)cc1 (centres unmarked) [Example 6, 4-(2,5-Dioxo-3-(2-oxo-2-thiomorpholinoethyl)-1-(3-(trifluoromethyl)phenyl)-2,3,4,5,6,7-hexahydro-1H-cyclopenta[d]pyrimidin-4-yl)benzonitrile]",3
3,CCNC(=O)N1C(=O)N(c2cccc(C(F)(F)F)c2)C2=C(C(=O)CC2)C1c1ccc(C#N)cc1S(=O)(=O)CC (centres unmarked) [Example 51.3],< 1
4,CC(C)(CO)NC(=O)N1C(=O)N(c2cccc(C(F)(F)F)c2)C2=C(C(=O)CC2)[C@H]1c1ccc(C#N)cc1S(C)(=O)=O [Example 47.14],< 1
5,Cc1cc(C#N)ccc1C1NC(=O)N(c2cccc(C(F)(F)F)c2)C2=C1C(=O)CC2 (centres unmarked) [Example 15.2],28.6
6,"CN1C(=O)N(c2cccc(C(F)F)c2)C2=C(C(=O)CC2)C1c1ccc(C#N)cc1S(C)(=O)=O (centres unmarked) [Example 27, 4-(1-(3-(Difluoromethyl)phenyl)-3-methyl-2,5-dioxo-2,3,4,5,6,7-hexahydro-1H-cyclopenta[d]pyrimidin-4-yl)-3-(methylsulfonyl)benzonitrile]",1.9
7,"N#Cc1ccc(C2NC(=O)N(c3cccc(C(F)(F)F)c3)C3=C2C(=O)CC3)cn1 (centres unmarked) [Example 12, 5-(2,5-Dioxo-1-(3-(trifluoromethyl)phenyl)-2,3,4,5,6,7-hexahydro-1H-cyclopenta[d]-pyrimidin-4-yl)picolinonitrile]",201
8,"C[S+]([O-])c1cc(C#N)ccc1C1NC(=O)N(c2cccc(C(F)(F)F)c2)C2=C1C(=O)CC2 (single isomer, unassigned) [Example 17A, 4-(2,5-dioxo-1-(3-(trifluoromethyl)phenyl)-2,3,4,5,6,7-hexahydro-1H-cyclopenta[d]pyrimidin-4-yl)-3-(methylsulfinyl)benzonitrile]",8.1
9,"N#Cc1ccc(C2NC(=O)N(c3cccc(C(F)(F)F)c3)C3=C2C(=O)CC3)c(F)c1 (centres unmarked) [Example 18, 4-(2,5-Dioxo-1-(3-(trifluoromethyl)phenyl)-2,3,4,5,6,7-hexahydro-1H-cyclopenta[d]-pyrimidin-4-yl)-3-fluorobenzonitrile]",44.2
10,"CN1C(=O)N(c2cccc(C(F)F)c2)C2=C(C(=O)CC2)[C@@H]1c1ccc(C#N)cc1 [Example 26B, (S)-4-(1-(3-(Difluoromethyl)phenyl)-3-methyl-2,5-dioxo-2,3,4,5,6,7-hexahydro-1H-cyclopenta[d]pyrimidin-4-yl)benzonitrile]",3410
11,"CS(=O)(=O)c1cc(C#N)ccc1C1NC(=O)N(c2cccc(C(F)(F)F)c2)C2=C1C(=O)CC2 (centres unmarked) [Example 10, 4-(2,5-Dioxo-1-(3-(trifluoromethyl)phenyl)-2,3,4,5,6,7-hexahydro-1H-cyclopenta[d]pyrimidin-4-yl)-3-(methylsulfonyl)benzonitrile]",5.8
12,COCCNC(=O)N1C(=O)N(c2cccc(C(F)F)c2)C2=C(C(=O)CC2)C1c1ccc(C#N)cc1 (centres unmarked) [Example 52.4],< 1
13,N#Cc1ccc(C2C3=C(CCC3=O)N(c3ccnc(C(F)(F)F)c3)C(=O)N2C(=O)NC2CC2)cc1 (racemic) [Example 54.3],1.5
14,CC(C)(O)CNC(=O)N1C(=O)N(c2cccc(C(F)F)c2)C2=C(C(=O)CC2)C1c1ccc(C#N)cc1S(C)(=O)=O (centres unmarked) [Example 53.5],< 1
15,"N#Cc1ccc(C2C3=C(CCC3=O)N(c3cccc(C(F)F)c3)C(=O)N2C(=O)NCCCO)cc1 (centres unmarked) [Example 52, 4-(4-Cyanophenyl)-1-(3-(difluoromethyl)phenyl)-N-(3-hydroxypropyl)-2,5-dioxo-4,5,6,7-tetrahydro-1H-cyclopenta[d]pyrimidine-3(2H)-carboxamide]",< 1
16,"CC(C(=O)NCCO)N1C(=O)N(c2cccc(C(F)(F)F)c2)C2=C(C(=O)CC2)C1c1ccc(C#N)cc1 (centres unmarked) [Example 20, 2-(4-(4-Cyanophenyl)-2,5-dioxo-1-(3-(trifluoromethyl)phenyl)-6,7-dihydro-1H-cyclopenta[d]pyrimidin-3(2H,4H,5H)-yl)-N-(2-hydroxyethyl)propanamide]",9.1
17,"CNC(=O)N1C(=O)N(c2cccc(C(F)(F)F)c2)C2=C(C(=O)CC2)[C@@H]1c1ccc(C#N)cc1F [Example 49B, (R)-4-(4-Cyano-2-fluorophenyl)-N-methyl-2,5-dioxo-1-(3-(trifluoromethyl)phenyl)-4,5,6,7-tetrahydro-1H-cyclopenta[d]pyrimidine-3(2H)-carboxamide]",173
18,CS(=O)(=O)N1C(=O)N(c2cccc(C(F)(F)F)c2)C2=C(C(=O)CC2)C1c1ccc(C#N)cn1 (centres unmarked) [Example 38.1],37.7
19,"CS(=O)(=O)N1C(=O)N(c2cccc(C(F)F)c2)C2=C(C(=O)CC2)C1c1ccc(C#N)cc1 (centres unmarked) [Example 36, 4-(1-(3-(Difluoromethyl)phenyl)-3-(methylsulfonyl)-2,5-dioxo-2,3,4,5,6,7-hexahydro-1H-cyclopenta[d]pyrimidin-4-yl)benzonitrile]",7.2

row,SMILES,IC50 [nM]
1,"CS(=O)(=O)c1cc(C#N)ccc1[C@@H]1NC(=O)N(c2cccc(C(F)(F)F)c2)C2=C1C(=O)CC2 [Example 10B, (R)-4-(2,5-Dioxo-1-(3-(trifluoromethyl)phenyl)-2,3,4,5,6,7-hexahydro-1H-cyclopenta[d]pyrimidin-4-yl)-3-(methylsulfonyl)benzonitrile]",98.4
2,CC1CC2=C(C1=O)C(c1ccc(C#N)cc1)NC(=O)N2c1cccc(C(F)(F)F)c1 (centres unmarked) [Example 15.7],66
3,"CS(=O)(=O)N1C(=O)N(c2ccnc(C(F)(F)F)c2)C2=C(C(=O)CC2)C1c1ccc(C#N)cc1 (centres unmarked) [Example 57, 4-(3-(Methylsulfonyl)-2,5-dioxo-1-(2-(trifluoromethyl)pyridin-4-yl)-2,3,4,5,6,7-hexahydro-1H-cyclopenta[d]pyrimidin-4-yl)benzonitrile]",34.9
4,"N#Cc1ccc(C2NC(=O)N(c3cccc(C(F)(F)F)c3)C3=C2C(=O)CC3)c(Cl)c1 (centres unmarked) [Example 15, 3-Chloro-4-(2,5-dioxo-1-(3-(trifluoromethyl)phenyl)-2,3,4,5,6,7-hexahydro-1H-cyclopenta[d]pyrimidin-4-yl)benzonitrile]",30.1
5,"CS(=O)(=O)N1C(=O)N(c2cccc(C(F)(F)F)c2)C2=C(C(=O)CC2)[C@@H]1c1ccc(C#N)cc1 [Example 9B, (S)-4-(3-(Methylsulfonyl)-2,5-dioxo-1-(3-(trifluoromethyl)phenyl)-2,3,4,5,6,7-hexahydro-1H-cyclopenta[d]pyrimidin-4-yl)benzonitrile]",3180
6,CS(=O)(=O)c1cc(C#N)ccc1[C@@H]1C2=C(CCC2=O)N(c2cccc(C(F)(F)F)c2)C(=O)N1C(=O)NCC#N [Example 47.3],< 1
7,"CC(C)(O)CNC(=O)N1C(=O)N(c2cccc(C(F)(F)F)c2)C2=C(C(=O)CC2)C1c1ccc(C#N)cc1 (centres unmarked) [Example 41, 4-(4-Cyanophenyl)-N-(2-hydroxy-2-methylpropyl)-2,5-dioxo-1-(3-(trifluoromethyl)-phenyl)-4,5,6,7-tetrahydro-1H-cyclopenta[d]pyrimidine-3(2H)-carboxamide]",1.4
8,"CSc1cc(C#N)ccc1C1NC(=O)N(c2cccc(C(F)(F)F)c2)C2=C1C(=O)CC2 (centres unmarked) [Example 16, 4-(2,5-Dioxo-1-(3-(trifluoromethyl)phenyl)-2,3,4,5,6,7-hexahydro-1H-cyclopenta[d]-pyrimidin-4-yl)-3-(methylthio)benzonitrile]",14.9
9,CS(=O)(=O)c1cc(C#N)ccc1[C@@H]1C2=C(CCC2=O)N(c2cccc(C(F)(F)F)c2)C(=O)N1C(=O)N[C@H]1CC[C@H](O)C1 [Example 48.4],< 1
10,"CN1C(=O)N(c2ccnc(C(F)(F)F)c2)C2=C(C(=O)CC2)C1c1ccc(C#N)cc1 (centres unmarked) [Example 28, 4-(3-Methyl-2,5-dioxo-1-(2-(trifluoromethyl)pyridin-4-yl)-2,3,4,5,6,7-hexahydro-1H-cyclopenta[d]pyrimidin-4-yl)benzonitrile]",36.7
11,CNC(=O)N1C(=O)N(c2cccc(C(F)(F)F)c2)C2=C(C(=O)CC2)C1c1ccc(C#N)cc1[S+](C)[O-] (centres unmarked) [Example 50.5],< 1
12,CCNC(=O)N1C(=O)N(c2cccc(C(F)(F)F)c2)C2=C(C(=O)CC2)C1c1ccc(C#N)cc1[S+](C)[O-] (centres unmarked) [Example 51.4],< 1
13,COc1cc(C#N)ccc1C1C2=C(CCC2=O)N(c2cccc(C(F)(F)F)c2)C(=O)N1S(C)(=O)=O (centres unmarked) [Example 38.2],34.1
14,"C[S+]([O-])c1cc(C#N)ccc1C1NC(=O)N(c2cccc(C(F)(F)F)c2)C2=C1C(=O)CC2 (single isomer, unassigned) [Example 17B, 4-(2,5-dioxo-1-(3-(trifluoromethyl)phenyl)-2,3,4,5,6,7-hexahydro-1H-cyclopenta[d]pyrimidin-4-yl)-3-(methylsulfinyl)benzonitrile]",9.4
15,"CC(C)(O)CNC(=O)N1C(=O)N(c2cccc(C(F)(F)F)c2)C2=C(C(=O)CC2)[C@@H]1c1ccc(C#N)cc1 [Example 41B, (S)-4-(4-Cyanophenyl)-N-(2-hydroxy-2-methylpropyl)-2,5-dioxo-1-(3-(trifluoro-methyl)phenyl)-4,5,6,7-tetrahydro-1H-cyclopenta[d]pyrimidine-3(2H)-carboxamide]",40.4
16,"N#Cc1ccc([C@H]2NC(=O)N(c3cccc(C(F)(F)F)c3)C3=C2C(=O)CC3)nc1 [Example 15.3A, (S)-6-(2,5-Dioxo-1-(3-(trifluoromethyl)phenyl)-2,3,4,5,6,7-hexahydro-1H-cyclopenta[d]pyrimidin-4-yl)nicotinonitrile]",31.5
17,"COC(=O)CCCS(=O)(=O)N1C(=O)N(c2cccc(C(F)(F)F)c2)C2=C(C(=O)CC2)C1c1ccc(C#N)cc1 (centres unmarked) [Example 34, Methyl 4-(4-(4-Cyanophenyl)-2,5-dioxo-1-(3-(trifluoromethyl)phenyl)-6,7-dihydro-1H-cyclopenta[d]pyrimidin-3(2H,4H,5H)-ylsulfonyl)butanoate]",3.2
18,CS(=O)(=O)c1cc(C#N)ccc1[C@@H]1C2=C(CCC2=O)N(c2cccc(C(F)(F)F)c2)C(=O)N1C(=O)NC1C2CC1C2 (some centres unmarked) [Example 48.2],< 1
19,CCNC(=O)N1C(=O)N(c2ccnc(C(F)(F)F)c2)C2=C(C(=O)CC2)C1c1ccc(C#N)cc1S(C)(=O)=O (racemic) [Example 56.2],< 1
